Test results: US12643887B2, “Heterocyclic derivatives with cardiomyocyte proliferation activity for treatment of heart diseases” (Tongji University, priority 2019, dated 2026)
Like-named read-outs stand apart in the source and are kept apart here.

Key:
human CLK1 = biological target: T1, human CLK1 (Homo sapiens, UniProt P49759); assay: CLK1 enzyme assay (ADP-Glo); assay type: biochemical
T1 construct: Recombinant human CLK1 (129-end); GST (N); purchased SignalChem C57-11G; host or cells: Sf9 insect cells
Procedure, shortened: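 GST-tagged CLK1 (129-end, Sf9-expressed) at 16 nM was preincubated with compound 30 min at 25 °C in 40 mM Tris pH 7.5, 20 mM MgCl2, 0.1 mg/ml BSA, 50 μM DTT. Reaction with 2 μM substrate and 10 μM ATP ran 60 min at 25 °C. ADP-Glo luminescence gave IC50 by four-parameter fit.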

human GSK3 beta = biological target: T2, human GSK3 beta (Homo sapiens, UniProt P49841); assay: GSK3 beta enzyme assay (ADP-Glo); assay type: biochemical; conditions: ATP 25 μM, read-out: GSK3b IC50
T2 construct: Recombinant full-length human GSK3 beta (expressed in Sf9 insect cells with an N-terminal His tag); His (N); purchased SignalChem G09-10H; host or cells: Sf9 insect cells
Procedure, shortened: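 Full-length His-tagged human GSK3β from Sf9 cells (4 nM) preincubated 30 min at 25 °C with inhibitor in Tris pH 7.5/MgCl2/BSA/DTT, then reacted 60 min at 25 °C with 13 μM substrate peptide and 25 μM ATP. ADP measured by ADP-Glo luminescence; IC50 from four-parameter logistic fit of % inhibition.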

[1] = ADP-Glo, ATP 10 μM, read-out: CLK1 IC50

T1 sequence (P49759 129-484 limits assumed): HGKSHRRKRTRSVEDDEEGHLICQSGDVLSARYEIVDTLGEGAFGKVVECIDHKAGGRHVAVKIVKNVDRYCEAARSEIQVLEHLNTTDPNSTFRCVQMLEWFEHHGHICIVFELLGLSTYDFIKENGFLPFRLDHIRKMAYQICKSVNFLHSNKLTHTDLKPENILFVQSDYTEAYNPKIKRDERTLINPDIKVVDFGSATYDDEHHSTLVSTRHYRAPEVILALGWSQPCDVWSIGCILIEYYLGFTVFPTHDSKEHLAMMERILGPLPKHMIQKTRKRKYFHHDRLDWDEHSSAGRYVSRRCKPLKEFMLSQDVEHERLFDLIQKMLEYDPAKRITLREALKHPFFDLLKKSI
T2 sequence (P49841 whole entry): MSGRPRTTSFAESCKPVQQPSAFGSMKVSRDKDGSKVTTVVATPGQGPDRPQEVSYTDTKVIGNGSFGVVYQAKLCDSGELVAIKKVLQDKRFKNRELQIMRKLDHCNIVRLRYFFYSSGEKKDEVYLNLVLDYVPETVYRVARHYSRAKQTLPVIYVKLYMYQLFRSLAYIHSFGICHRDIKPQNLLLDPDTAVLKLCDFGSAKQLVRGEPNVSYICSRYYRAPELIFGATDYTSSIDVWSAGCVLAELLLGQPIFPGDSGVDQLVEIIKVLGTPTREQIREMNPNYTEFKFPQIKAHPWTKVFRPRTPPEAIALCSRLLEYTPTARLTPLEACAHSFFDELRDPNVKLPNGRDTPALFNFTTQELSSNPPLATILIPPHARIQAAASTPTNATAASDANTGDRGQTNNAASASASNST

SMILES	IC50 (human CLK1; [1])	IC50 (human CLK1)	IC50 (human GSK3 beta)
CCN(C1=N/C(=C\c2ccc3c(c2)OCO3)C(=O)N1)c1ccccc1 [Example 4, (Z)-5-(benzo[d][1,3]dioxol-5-ylmethylene)-2-(ethyl(phenyl)amino)-3,5-dihydro-4H-imidazol-4-one]	100 to 1000 nM		
CC(=O)N(C1=N/C(=C\c2ccc3c(c2)OCO3)C(=O)N1)c1ccccc1 [Example 5, (Z)—N-(4-(benzo[d][1,3]dioxol-5-ylmethylene)-5-oxo-4,5-dihydro-1H-imidazol-2-yl)-N-phenylacetamide]		100 to 1000 nM	
CN(C1=N/C(=C\c2ccc3ncccc3c2)C(=O)N1)c1ccc2ncsc2c1 [Example 85, (Z)-2-(benzo[d]thiazol-6-yl(methyl)amino)-5-(quinolin-6-ylmethylene)-3,5-dihydro-4H-imidazol-4-one]	100 to 1000 nM		1000 to 10000 nM
CN(C1=N/C(=C\c2ccc3ncsc3c2)C(=O)N1)c1ccc2c(c1)ncn2C [Example 86, (Z)-5-(benzo[d]thiazol-6-ylmethylene)-2-(methyl(1-methyl-1H-benzo[d]imidazol-5-yl)amino)-3,5-dihydro-4H-imidazol-4-one]	1000 to 10000 nM		1000 to 10000 nM
CN(C1=N/C(=C\c2ccc3[nH]ccc3c2)C(=O)N1)c1ccc2ncsc2c1 [Example 87, (Z)-5-((1H-indol-5-yl)methylene)-2-(benzo[d]thiazol-6-yl(methyl)amino)-3,5-dihydro-4H-imidazol-4-one]	> 10000 nM		> 10000 nM
CN1C(=O)/C(=C/c2ccc3ncsc3c2)N=C1Nc1ccc2ncsc2c1 [Example 88, (Z)-2-(benzo[d]thiazol-6-ylamino)-5-(benzo[d]thiazol-6-ylmethylene)-3-methyl-3,5-dihydro-4H-imidazol-4-one]	< 100 nM		> 10000 nM
COCCN(C1=N/C(=C\c2ccc3ncsc3c2)C(=O)N1)c1ccc2ncsc2c1 [Example 89, (Z)-2-(benzo[d]thiazol-6-yl(2-methoxyethyl)amino)-5-(benzo[d]thiazol-6-ylmethylene)-3,5-dihydro-4H-imidazol-4-one]	< 100 nM		1000 to 10000 nM
Cc1nc2ccc(NC3=N/C(=C\c4ccc5ncsc5c4)C(=O)N3)cc2s1 [Example 90, (Z)-5-(benzo[d]thiazol-6-ylmethylene)-2-((2-methylbenzo[d]thiazol-6-yl)amino)-3,5-dihydro-4H-imidazol-4-one]	< 100 nM		> 10000 nM
CC(=O)N(C1=N/C(=C\c2ccc3ncsc3c2)C(=O)N1)c1ccc2ncsc2c1 [Example 91, (Z)—N-(benzo[d]thiazol-6-yl)-N-(4-(benzo[d]thiazol-6-ylmethylene)-5-oxo-4,5-dihydro-1H-imidazol-2-yl)acetamide]	< 100 nM		> 10000 nM
O=C1NC(Nc2ccc3ncsc3c2)=N/C1=C\c1cncs1 [Example 92, (Z)-2-(benzo[d]thiazol-6-ylamino)-5-(thiazol-5-ylmethylene)-3,5-dihydro-4H-imidazol-4-one]	< 100 nM		100 to 1000 nM
Cn1cnc2ccc(NC3=N/C(=C\c4ccc5ncsc5c4)C(=O)N3)cc21 [Example 93, (Z)-5-(benzo[d]thiazol-6-ylmethylene)-2-((1-methyl-1H-benzo[d]imidazol-6-yl)amino)-3,5-dihydro-4H-imidazol-4-one]	< 100 nM		100 to 1000 nM
O=C1NC(Nc2ccc3ncsc3c2)=N/C1=C\c1ccc2nccnc2c1 [Example 94, (Z)-2-(benzo[d]thiazol-6-ylamino)-5-(quinoxalin-6-ylmethylene)-3,5-dihydro-4H-imidazol-4-one]	> 10000 nM		> 10000 nM
O=C1NC(Nc2ccc3ncsc3c2)=N/C1=C\c1ccc2cn[nH]c2c1 [Example 95, (Z)-5-((1H-indazol-6-yl)methylene)-2-(benzo[d]thiazol-6-ylamino)-3,5-dihydro-4H-imidazol-4-one]	> 10000 nM		> 10000 nM
O=C1NC(=S)N/C1=C\c1ccc2sccc2c1 [Example 96, (Z)-5-(benzo[b]thiophen-5-ylmethylene)-2-thioxoimidazolidin-4-one]	> 10000 nM		1000 to 10000 nM
O=C1NC(Nc2ccc3nc[nH]c3c2)=N/C1=C\c1ccc2ncsc2c1 [Example 97, (Z)-2-((1H-benzo[d]imidazol-6-yl)amino)-5-(benzo[d]thiazol-6-ylmethylene)-3,5-dihydro-4H-imidazol-4-one]	100 to 1000 nM		1000 to 10000 nM
Nc1ccc(NC2=N/C(=C\c3ccc4ncsc4c3)C(=O)N2)cc1 [Example 98, (Z)-2-((4-aminophenyl)amino)-5-(benzo[d]thiazol-6-ylmethylene)-3,5-dihydro-4H-imidazol-4-one]	< 100 nM		100 to 1000 nM
O=C1NC(N(Cc2ccccc2)c2ccc3ncsc3c2)=N/C1=C\c1ccc2ncsc2c1 [Example 99, (Z)-2-(benzo[d]thiazol-6-yl(benzyl)amino)-5-(benzo[d]thiazol-6-ylmethylene)-3,5-dihydro-4H-imidazol-4-one]	< 100 nM		> 10000 nM
CC(C)Nc1nc2ccc(NC3=N/C(=C\c4ccc5ncsc5c4)C(=O)N3)cc2s1 [Example 100, (Z)-5-(benzo[d]thiazol-6-ylmethylene)-2-((2-(isopropylamino)benzo[d]thiazol-6-yl)amino)-3,5-dihydro-4H-imidazol-4-one]	1000 to 10000 nM		100 to 1000 nM
O=C1NC(Nc2ccc3sccc3c2)=N/C1=C\c1ccc2ncsc2c1 [Example 101, (Z)-2-(benzo[b]thiophen-5-ylamino)-5-(benzo[d]thiazol-6-ylmethylene)-3,5-dihydro-4H-imidazol-4-one]	100 to 1000 nM		> 10000 nM
